pEC50: −log10 of the molar value.
Molecular target: T1, STING (Homo sapiens, UniProt Q86WV6, G230A/H232R/R293Q/R71H)
T1 construct: host or cells: THP1-Dual KO-IFNAR2 cells
Test: STING reporter assay: luciferase reporter activity in THP1-Dual KO-IFNAR2 cells stimulated with 2'3'cGAMP
Type: cell-based
Settings: 2′3′cGAMP 15 μM final, 24h, read-out: hSTING: EC50
Protocol: STING pathway activation by the compounds described herein was measured using THIP1-Dua1™ cells (KO-IFNAR2).
TTIP1-Dual™ KO-IFNAR2 Cells (obtained from invivogen) were maintained in RPMI, 10% FCS, 5 ml P/S, 2 mM L-glut, 10 mM Hepes, and 1 mM sodium pyruvate. Compounds were spotted in empty 384 well tissue culture plates (Greiner 781182) by Echo for a final concentration of 0.0017-100 μM. Cells were plated into the TC plates at 40 μL per well, 2×10E6 cells/mL. For activation with STING ligand, 2′3′cGAMP (MW 718.38, obtained from Invivogen), was prepared in Optimem media.
The following solutions were prepared for each 1×384 plate: • Solution A: 2 mL Optimem with one of the following stimuli: • […] • Solution B: 2 mL Optimem with 60 μL Lipofectamine 2000->Incubate 5 min at RT
2 mL of solution A and 2 ml Solution B was mixed and incubated for 20 min at room temperature (RT). 20 uL of transfection solution (A+B) was added on top of the plated cells, with a final 2′3′cGAMP concentration of 15 μM. The plates were then centrifuged immediately at 340 g for 1 minute, after which they were incubated at 37° C., 5% C02, >98% humidity for 24h. Luciferase reporter activity was then measured. EC50 values were calculated by using standard methods known in the art.
Luciferase reporter assay: 10 μL of supernatant from the assay was transferred to white 384-plate with flat bottom and squared wells. One pouch of QUANTI-Luc™ Plus was dissolved in 25 mL of water. 100 μL of QLC Stabilizer per 25 mL of QUANTI-Luc™ Plus solution was added. 50 μL of QUANTI-Luc™ Plus/QLC solution per well was then added. Luminescence was measured on a Platereader (e.g., Spectramax I3X (Molecular Devices GF3637001)).
Luciferase reporter activity was then measured. EC50 values were calculated by using standard methods known in the art.

T1 sequence (Q86WV6 whole entry R71H/G230A/H232R/R293Q): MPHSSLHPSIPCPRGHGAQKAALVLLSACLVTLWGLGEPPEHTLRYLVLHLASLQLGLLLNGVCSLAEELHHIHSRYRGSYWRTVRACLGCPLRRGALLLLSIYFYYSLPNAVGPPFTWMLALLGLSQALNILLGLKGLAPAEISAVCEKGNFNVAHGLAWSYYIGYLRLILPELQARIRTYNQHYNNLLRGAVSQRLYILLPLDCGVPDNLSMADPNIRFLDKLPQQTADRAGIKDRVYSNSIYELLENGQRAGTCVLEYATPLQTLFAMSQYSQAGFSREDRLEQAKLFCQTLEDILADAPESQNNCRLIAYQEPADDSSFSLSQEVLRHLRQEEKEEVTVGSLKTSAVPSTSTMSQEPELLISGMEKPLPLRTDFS

| pEC50 | SMILES |
| --- | --- |
| 6.00 to 6.70 | O=C(Nc1c[nH]c2cc(F)c(F)cc12)C(=O)N[C@@H]1CCC[C@H](Oc2ccc(C(F)(F)F)cc2)C1 (single isomer, unassigned) [Compound 220] |
| 6.70 to 7.40 | O=C(Nc1c[nH]c2cc(F)c(F)cc12)C(=O)N[C@H]1CCC[C@H](Oc2ccc(C(F)(F)F)cc2)C1 (single isomer, unassigned) [Compound 227] |
| 6.00 to 6.70 | O=C(Nc1c[nH]c2cc(F)c(F)cc12)C(=O)N[C@@H]1CCC[C@@H](Oc2ccc(C(F)(F)F)cc2)C1 (single isomer, unassigned) [Compound 228] |
| 6.00 to 6.70 | CCC(NC(=O)C(=O)Nc1c[nH]c2cc(F)c(F)cc12)c1cccc(C(F)(F)F)c1 (single isomer, unassigned) [Compound 235] |
| 6.00 to 6.70 | CCC(NC(=O)C(=O)Nc1c[nH]c2cc(F)c(F)cc12)c1cccc(C(F)(F)F)c1 (single isomer, unassigned) [Compound 236] |
| 6.00 to 6.70 | O=C(Nc1c[nH]c2cc(F)c(F)cc12)C(=O)NC(c1ccccc1)C(F)(F)F (single isomer, unassigned) [Compound 239, N-(5,6-difluoro-1H-indol-3-yl)-N′-(2,2,2-trifluoro-1-phenylethyl)oxalamide] |
| 6.00 to 6.70 | O=C(Nc1c[nH]c2cc(F)c(F)cc12)C(=O)NC(c1ccccc1)C(F)(F)F (single isomer, unassigned) [Compound 240, N-(5,6-difluoro-1H-indol-3-yl)-N′-(2,2,2-trifluoro-1-phenylethyl)oxalamide] |
| 5.30 to 6.00 | O=C(Nc1c[nH]c2cc(F)c(F)cc12)C(=O)NC1CCOC2(CCCC2)C1 (single isomer, unassigned) [Compound 243] |
| 5.30 to 6.00 | O=C(Nc1c[nH]c2cc(F)c(F)cc12)C(=O)NC1CCOC2(CCCC2)C1 (single isomer, unassigned) [Compound 244] |
| 6.00 to 6.70 | O=C(Nc1c[nH]c2cc(F)c(F)cc12)C(=O)NC1CCC2(CCCC2)C1 (single isomer, unassigned) [Compound 245] |
| 6.00 to 6.70 | O=C(Nc1c[nH]c2cc(F)c(F)cc12)C(=O)NC1CCC2(CCCC2)C1 (single isomer, unassigned) [Compound 246] |
| 6.00 to 6.70 | O=C(Nc1c[nH]c2cc(F)c(F)cc12)C(=O)NC1CCC2(CCCCC2)C1 (single isomer, unassigned) [Compound 247] |
| 6.00 to 6.70 | O=C(Nc1c[nH]c2cc(F)c(F)cc12)C(=O)NC1CCCC2(CCCCC2)C1 (single isomer, unassigned) [Compound 257] |
| 6.00 to 6.70 | O=C(Nc1c[nH]c2cc(F)c(F)cc12)C(=O)NC1CCCC2(CCCCC2)C1 (single isomer, unassigned) [Compound 258] |
| 5.30 to 6.00 | CC(NC(=O)C(=O)Nc1c[nH]c2cc(F)c(F)cc12)c1cc(C(F)(F)F)c(Cl)cn1 (single isomer, unassigned) [Compound 260] |
| 6.00 to 6.70 | CC(CN(C)c1ccccc1)NC(=O)C(=O)Nc1c[nH]c2cc(F)c(F)cc12 (single isomer, unassigned) [Compound 320] |
| 6.70 to 7.40 | CC(NC(=O)C(=O)Nc1c[nH]c2cc(F)c(F)cc12)c1ccc(C(F)(F)F)cc1 (single isomer, unassigned) [Compound 330] |
| 6.00 to 6.70 | O=C(NCC(c1ccccc1)C(F)F)C(=O)Nc1c[nH]c2cc(F)c(F)cc12 (single isomer, unassigned) [Compound 347] |
| 6.70 to 7.40 | O=C(Nc1c[nH]c2cc(F)c(F)cc12)C(=O)N[C@@H]1CCC2(CCCCC2)C1 (stereo in doubt) [Compound 248] |
| 6.70 to 7.40 | C[C@H](NC(=O)C(=O)Nc1c[nH]c2cc(F)c(F)cc12)c1cc(C(F)(F)F)c(Cl)cn1 (stereo in doubt) [Compound 259] |
| 6.00 to 6.70 | C[C@@H](CN(C)c1ccccc1)NC(=O)C(=O)Nc1c[nH]c2cc(F)c(F)cc12 (stereo in doubt) [Compound 319] |
| 6.70 to 7.40 | C[C@H](NC(=O)C(=O)Nc1c[nH]c2cc(F)c(F)cc12)c1ccc(C(F)(F)F)cc1 (stereo in doubt) [Compound 329] |
| 6.00 to 6.70 | O=C(Nc1ccc(C(F)(F)F)cn1)C(=O)Nc1c[nH]c2cc(F)c(F)cc12 [Compound 101] |

| pEC50 | SMILES |
| --- | --- |
| 6.00 to 6.70 | O=C(Nc1cccc(C(F)(F)F)c1)C(=O)Nc1c[nH]c2cc(F)c(F)cc12 [Compound 102] |
| 6.70 to 7.40 | Cc1cc(NC(=O)C(=O)Nc2c[nH]c3cc(F)c(F)cc23)cc(C(F)(F)F)c1 [Compound 103, N^1-(5,6-difluoro-1H-indol-3-yl)-N^2-(3-methyl-5-(trifluoromethyl)phenyl)oxalamide] |
| 6.00 to 6.70 | O=C(Nc1ccc(C2CCCCC2)nc1)C(=O)Nc1c[nH]c2cc(F)c(F)cc12 [Compound 104] |
| 6.70 to 7.40 | O=C(Nc1ccc(C2CCOCC2)cc1)C(=O)Nc1c[nH]c2cc(F)c(F)cc12 [Compound 105] |
| 6.70 to 7.40 | Cc1ccc(CNC(=O)C(=O)Nc2c[nH]c3cc(F)c(F)cc23)cc1C(F)(F)F [Compound 107] |
| 6.00 to 6.70 | O=C(NCc1ccc(-c2ccccc2C(F)(F)F)cc1)C(=O)Nc1c[nH]c2cc(F)c(F)cc12 [Compound 108] |
| 6.00 to 6.70 | O=C(Nc1c[nH]c2cc(F)c(F)cc12)C(=O)NC1CCC2(CCCCC2)CC1 [Compound 109] |
| 6.00 to 6.70 | O=C(NCCC1CCC(F)(F)CC1)C(=O)Nc1c[nH]c2cc(F)c(F)cc12 [Compound 110] |
| 6.00 to 6.70 | O=C(NCC1CC2C=CC1C2)C(=O)Nc1c[nH]c2cc(F)c(F)cc12 (stereo not drawn) [Compound 111] |
| 5.30 to 6.00 | O=C(NCC12CC3CC(CC(C3)C1)C2)C(=O)Nc1c[nH]c2cc(F)c(F)cc12 [Compound 112] |
| 6.00 to 6.70 | CCC1CCC(NC(=O)C(=O)Nc2c[nH]c3cc(F)c(F)cc23)CC1 (stereo not drawn) [Compound 113] |
| 5.30 to 6.00 | CN(C(=O)C(=O)Nc1c[nH]c2cc(F)c(F)cc12)c1ccc(C(F)(F)F)cc1 [Compound 114] |
| 6.70 to 7.40 | O=C(Nc1ccc(C(F)(F)F)cc1)C(=O)Nc1c[nH]c2cc(F)c(F)cc12 [Compound 115, N1-(5,6-difluoro-1H-indol-3-yl)-N2-(4-(trifluoromethyl)phenyl) oxalamide] |
| 6.00 to 6.70 | O=C(Nc1ccc(C(F)(F)F)cc1)C(=O)Nc1c[nH]c2ccccc12 [Compound 116, N1-(1H-indol-3-yl)-N2-(4-(trifluoromethyl)phenyl)oxalamide] |
| 5.30 to 6.00 | CCC1CCN(C(=O)C(=O)Nc2c[nH]c3cc(F)c(F)cc23)CC1 [Compound 117] |
| 6.70 to 7.40 | O=C(NCCC1CCCCC1)C(=O)Nc1c[nH]c2cc(F)c(F)cc12 [Compound 118] |
| 6.70 to 7.40 | O=C(NCc1ccc(C(F)(F)F)cn1)C(=O)Nc1c[nH]c2cc(F)c(F)cc12 [Compound 119, N-(5,6-difluoro-1H-indol-3-yl)-N′-[[5-(trifluoromethyl)pyridin-2-yl]methyl]ethanediamide] |
| 6.00 to 6.70 | O=C(Nc1c[nH]c2cc(F)c(F)cc12)C(=O)NC1CCC(Cc2ccccc2)CC1 (stereo not drawn) [Compound 122] |
| 6.70 to 7.40 | O=C(NCc1ccc(C(F)(F)F)c(Cl)c1)C(=O)Nc1c[nH]c2cc(F)c(F)cc12 [Compound 123] |
| 6.00 to 6.70 | Cc1ccc(CNC(=O)C(=O)Nc2c[nH]c3ccc(Br)cc23)cc1C(F)(F)F [Compound 124] |
| 6.00 to 6.70 | CC(C)(NC(=O)C(=O)Nc1c[nH]c2cc(F)c(F)cc12)c1ccc(C(F)(F)F)cc1 [Compound 125] |
| 6.70 to 7.40 | O=C(NCc1cc(C(F)(F)F)ccn1)C(=O)Nc1c[nH]c2cc(F)c(F)cc12 [Compound 126] |

From patent US20230021448A1, “COMPOUNDS AND COMPOSITIONS FOR TREATING CONDITIONS ASSOCIATED WITH STING ACTIVITY” (IFM Due, Inc., priority 2019, published 2023)
